In paper PMC4325424 (Cancer cell, 2015):

Target: T1, glutathione peroxidase 1 (GPx1) (Homo sapiens, UniProt P07203)
T1 sequence (P07203 1-203): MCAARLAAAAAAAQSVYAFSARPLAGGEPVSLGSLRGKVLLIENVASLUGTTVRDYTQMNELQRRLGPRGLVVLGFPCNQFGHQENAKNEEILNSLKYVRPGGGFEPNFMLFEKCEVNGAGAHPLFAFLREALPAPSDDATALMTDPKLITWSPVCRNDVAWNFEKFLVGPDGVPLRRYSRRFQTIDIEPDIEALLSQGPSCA
Experiment: radiometric […]-fumarate binding to bead-bound flag-GPx1

## O=C(O)/C=C/C(=O)O [fumarate]
  Kd: 75.5 ± 5.22 µM
